Assay results from patent publication US7304174B2, “CaSR antagonist” (Japan Tobacco Inc., priority 2003, dated 2007).

These compounds were tested against T1, human calcium receptor (Homo sapiens, UniProt P41180) (assay: Evaluation of antagonistic action on calcium receptor using reporter gene (luciferase)). Details: transformed rat adrenal derived cells, 5 mM calcium chloride, culture 4 hrs, luciferase activity; read-out: Reporter gene assay (IC50, concentration showing 50% inhibitory rate).
T1 construct: expressed in transfected cells; host or cells: cell strain derived from rat adrenal, co-transformed with luciferase cDNA
T1 sequence (P41180 20-1078): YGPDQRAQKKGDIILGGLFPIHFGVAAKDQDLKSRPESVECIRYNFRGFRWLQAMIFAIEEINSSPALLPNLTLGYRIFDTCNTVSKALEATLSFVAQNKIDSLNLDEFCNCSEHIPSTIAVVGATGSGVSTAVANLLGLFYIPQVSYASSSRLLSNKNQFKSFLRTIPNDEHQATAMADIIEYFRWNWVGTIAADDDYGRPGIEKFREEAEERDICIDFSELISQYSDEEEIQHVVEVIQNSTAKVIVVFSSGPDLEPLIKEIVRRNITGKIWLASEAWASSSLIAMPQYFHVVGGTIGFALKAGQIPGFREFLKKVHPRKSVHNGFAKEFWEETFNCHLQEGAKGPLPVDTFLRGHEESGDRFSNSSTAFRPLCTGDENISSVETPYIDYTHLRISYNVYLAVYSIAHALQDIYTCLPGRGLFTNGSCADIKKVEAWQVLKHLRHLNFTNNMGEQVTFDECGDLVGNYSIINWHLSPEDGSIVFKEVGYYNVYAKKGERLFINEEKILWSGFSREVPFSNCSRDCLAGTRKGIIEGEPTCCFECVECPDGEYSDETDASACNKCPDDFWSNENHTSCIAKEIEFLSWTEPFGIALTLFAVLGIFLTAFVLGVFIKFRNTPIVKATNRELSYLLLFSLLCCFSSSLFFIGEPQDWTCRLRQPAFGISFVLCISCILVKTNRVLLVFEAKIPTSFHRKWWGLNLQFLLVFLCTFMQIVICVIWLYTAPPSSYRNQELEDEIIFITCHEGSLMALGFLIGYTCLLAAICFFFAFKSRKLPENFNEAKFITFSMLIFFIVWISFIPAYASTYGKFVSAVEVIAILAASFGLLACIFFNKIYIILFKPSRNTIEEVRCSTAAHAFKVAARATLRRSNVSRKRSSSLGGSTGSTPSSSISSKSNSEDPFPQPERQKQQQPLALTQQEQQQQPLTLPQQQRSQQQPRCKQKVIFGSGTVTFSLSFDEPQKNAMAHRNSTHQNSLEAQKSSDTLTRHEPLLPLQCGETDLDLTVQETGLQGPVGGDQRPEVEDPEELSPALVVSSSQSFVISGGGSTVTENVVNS
Format: cell-based
Protocol: Evaluation of Antagonistic Action on Calcium Receptor Using Reporter Gene
Luciferase cDNA and human calcium receptor cDNA were introduced into a cell strain derived from rat adrenal to transform the cells, and the transformed cells were cultured in a medium (80 μl, F12 medium containing 0.5% dialyzed horse serum and 0.25% dialyzed bovine fetal serum). A dimethyl sulfoxide solution containing a test compound at 0.1-10000 μM was diluted 100-fold with the medium and added to the test compound group at 10 μl per well (dimethyl sulfoxide final concentration 0.1%). In the same manner as in test compound group, dimethyl sulfoxide 100-fold diluted with medium was added to a control group and a blank group. Then, 50 mM calcium chloride-containing medium was added to every well except the blank group at 10 μl per well (final concentration 5 mM). A medium containing 50 mM calcium chloride was added to the control group at 10 μl per well, such that the final calcium concentration of the medium became 5 mM. A medium alone was added to the blank group. After culture for 4 hrs, luciferase substrate was added and the luciferase activity was measured with a photoluminometer. The inhibitory rate (%) was calculated from the obtained measured values according to the following formula.
Based on the results, the concentration (IC50) showing 50% inhibitory rate was determined. The results are shown in the aforementioned Tables 1 to 60.

Row | Compound | IC50 [nM]
1 | C[C@@H](OC[C@H](O)CNC(C)(C)Cc1ccc2ccccc2c1)c1ccccc1-c1cc(C(=O)O)ccc1F [Example 1-58, 6-fluoro-2′-[1-[(2R)-3-[[1-(naphthalen-2-yl)-2-methylpropan-2-yl]amino]-2-hydroxypropoxy]ethyl]biphenyl-3-carboxylic acid] | 21
2 | Cc1cc(-c2ccccc2[C@@H](C)OC[C@H](O)CNC(C)(C)Cc2ccc(C(F)(F)F)c(F)c2)ccc1C(=O)O [Example 1-92, 2′-[1-[(2R)-3-[[1-(3-fluoro-4-trifluoromethylphenyl)-2-methylpropan-2-yl]amino]-2-hydroxypropoxy]ethyl]-3-methylbiphenyl-4-carboxylic acid] | 22
3 | Cc1cc(-c2ccccc2[C@@H](C)OC[C@H](O)CNC(C)(C)Cc2ccc3ccccc3c2)ccc1C(=O)O [Example 1-55, 3-methyl-2′-[1-[(2R)-3-[[1-(naphthalen-2-yl)-2-methylpropan-2-yl]amino]-2-hydroxypropoxy]ethyl]biphenyl-4-carboxylic acid] | 10
4 | Cc1ccc(CC(C)(C)NC[C@@H](O)CO[C@H](C)c2ccccc2-c2ccc(C(=O)O)c(C)c2)cc1 [Example 1-22, 2′-[1-[(2R)-3-[[1-(4-methylphenyl)-2-methylpropan-2-yl]amino]-2-hydroxypropoxy]ethyl]-3-methylbiphenyl-4-carboxylic acid] | 12
5 | Cc1cc(-c2ccccc2C(OC[C@H](O)CNC(C)(C)Cc2ccc(Cl)cc2F)C2CC2)ccc1C(=O)O (stereo partly drawn) [Example 1-18, 2′-[(cyclopropyl)[(2R)-3-[[1-(4-chloro-2-fluorophenyl)-2-methylpropan-2-yl]amino]-2-hydroxypropoxy]methyl]-3-methylbiphenyl-4-carboxylic acid] | 16
6 | CC(C)(Cc1ccc2ccccc2c1)NC[C@@H](O)COC(c1ccccc1-c1ccc(C(=O)O)cc1F)C1CC1 (stereo partly drawn) [Example 1-65, 2′-[(cyclopropyl)[(2R)-3-[[1-(naphthalen-2-yl)-2-methylpropan-2-yl]amino]-2-hydroxypropoxy]methyl]-2-fluorobiphenyl-4-carboxylic acid] | 16
7 | Cc1cc(CC(C)(C)NC[C@@H](O)CO[C@H](C)c2ccccc2-c2ccc(C(=O)O)c(C)c2)ccc1Cl [Example 1-4, 2′-[1-[(2R)-3-[[1-(4-chloro-3-methylphenyl)-2-methylpropan-2-yl]amino]-2-hydroxypropoxy]ethyl]-3-methylbiphenyl-4-carboxylic acid] | 14
8 | Cc1cc(-c2ccccc2[C@@H](C)OC[C@H](O)CNC(C)(C)Cc2cc(F)c(Cl)cc2F)ccc1C(=O)O [Example 1-25, 2′-[1-[(2R)-3-[[1-(4-chloro-2,5-difluorophenyl)-2-methylpropan-2-yl]amino]-2-hydroxypropoxy]ethyl]-3-methylbiphenyl-4-carboxylic acid] | 19
9 | Cc1cc(-c2ccccc2[C@@H](C)OC[C@H](O)CNC(C)(C)Cc2cc(C(F)(F)F)cc(C(F)(F)F)c2)ccc1C(=O)O [Example 1-94, 2′-[1-[(2R)-3-[[1-(3,5-ditrifluoromethylphenyl)-2-methylpropan-2-yl]amino]-2-hydroxypropoxy]ethyl]-3-methylbiphenyl-4-carboxylic acid] | 28
10 | Cc1cc(-c2ccccc2[C@@H](C)OC[C@H](O)CNC(C)(C)Cc2ccc(Cl)cc2F)ccc1C(=O)O [Example 1-110] | 26
11 | C[C@@H](OC[C@H](O)CNC(C)(C)Cc1ccc2ccccc2c1)c1ccccc1-c1cc2c(c(C(=O)O)c1)OCC2 [Example 1-74, 2,3-dihydro-5-[2-[1-[(2R)-3-[[1-(naphthalen-2-yl)-2-methylpropan-2-yl]amino]-2-hydroxypropoxy]ethyl]phenyl]benzofuran-7-carboxylic acid] | 11
12 | Cc1cc(C(=O)O)ccc1-c1ccccc1C(OC[C@H](O)CNC(C)(C)Cc1ccc2ccccc2c1)C1CC1 (stereo partly drawn) [Example 1-66, 2′-[(cyclopropyl)[(2R)-3-[[1-(naphthalen-2-yl)-2-methylpropan-2-yl]amino]-2-hydroxypropoxy]methyl]-2-methylbiphenyl-4-carboxylic acid] | 17
13 | Cc1cc(C(=O)O)ccc1-c1ccccc1[C@@H](C)OC[C@H](O)CNC(C)(C)Cc1ccc(Cl)c(F)c1 [Example 1-83, 2′-[1-[(2R)-3-[[1-(4-chloro-3-fluorophenyl)-2-methylpropan-2-yl]amino]-2-hydroxypropoxy]ethyl]-2-methylbiphenyl-4-carboxylic acid] | 16
14 | C[C@@H](OC[C@H](O)CNC(C)(C)Cc1ccc(Cl)c(F)c1)c1ccccc1-c1ccc(C(=O)O)c(C(C)(C)C)c1 [Example 1-100, 2′-[1-[(2R)-3-[[1-(4-chloro-3-fluorophenyl)-2-methylpropan-2-yl]amino]-2-hydroxypropoxy]ethyl]-3-t-butylbiphenyl-4-carboxylic acid] | 17

Second part, the compound after the results:

Row | IC50 [nM] | Compound
15 | 21 | 4-[2-[1-[(2R)-3-[[1-(3-fluoro-4-methylphenyl)-2-methylpropan-2-yl]amino]-2-hydroxypropoxy]ethyl]phenoxy]-3-methoxybenzoic acid [Example 2-2]
16 | 2 | Cc1ccc(CC(C)(C)NC[C@@H](O)CO[C@H](C)c2ccccc2Oc2ccc(C(=O)O)cc2C(F)(F)F)cc1F [Example 2-33, 4-[2-[1-[(2R)-3-[[1-(3-fluoro-4-methylphenyl)-2-methylpropan-2-yl]amino]-2-hydroxypropoxy]ethyl]phenoxy]-3-trifluoromethylbenzoic acid]
17 | 27 | CC(OC[C@H](O)CNC(C)(C)Cc1ccc2ccccc2c1)c1ccccc1Sc1cccc(C(=O)O)c1 (stereo partly drawn) [Example 2-10, 3-[2-[1-[(2R)-3-[[1-(naphthalen-2-yl)-2-methylpropan-2-yl]amino]-2-hydroxypropoxy]ethyl]phenylthio]benzoic acid]
18 | 14 | CC(OC[C@H](O)CNC(C)(C)Cc1ccc2ccccc2c1)c1ccccc1Sc1ccc(C(=O)O)cc1 (stereo partly drawn) [Example 2-16, 4-[2-[1-[(2R)-3-[[1-(naphthalen-2-yl)-2-methylpropan-2-yl]amino]-2-hydroxypropoxy]ethyl]phenylthio]benzoic acid]
19 | 17 | C[C@@H](OC[C@H](O)CNC(C)(C)Cc1ccc2ccccc2c1)c1ccccc1OCc1ccc(C(=O)O)cc1 [Example 2-22, 4-[[2-[1-[(2R)-3-[[1-(naphthalen-2-yl)-2-methylpropan-2-yl]amino]-2-hydroxypropoxy]ethyl]phenoxy]methyl]benzoic acid]
20 | 11 | C[C@@H](OC[C@H](O)CNC(C)(C)Cc1ccc(Cl)c(F)c1)c1ccccc1Oc1ccc(C(=O)O)cc1 [Example 2-35, 4-[2-[1-[(2R)-3-[[1-(4-chloro-3-fluorophenyl)-2-methylpropan-2-yl]amino]-2-hydroxypropoxy]ethyl]phenoxy]benzoic acid]
21 | 3 | Cc1ccc(CC(C)(C)NC[C@@H](O)CO[C@H](C)c2ccccc2Oc2ccc(C(=O)O)cc2Cl)cc1F [Example 2-30, 4-[2-[1-[(2R)-3-[[1-(3-fluoro-4-methylphenyl)-2-methylpropan-2-yl]amino]-2-hydroxypropoxy]ethyl]phenoxy]-3-chlorobenzoic acid]
22 | 6 | Cc1ccc(CC(C)(C)NC[C@@H](O)CO[C@H](C)c2ccccc2Oc2ccc(C(=O)O)cc2F)cc1F [Example 2-34, 4-[2-[1-[(2R)-3-[[1-(3-fluoro-4-methylphenyl)-2-methylpropan-2-yl]amino]-2-hydroxypropoxy]ethyl]phenoxy]-3-fluorobenzoic acid]
